{
  "source": "patent US12338484B2",
  "about": "“FRET biosensor for detecting and reporting NAD+/NADH ratio changes” (Sartorius BioAnalytical Instruments, Inc., priority 2022, dated 2025)",
  "experiment": "Performance of initial constructs under dual-excitation FRET signal collection mode",
  "format": "biochemical",
  "text": "Constructs #10 and #14 in Table 3 were used to generate protein libraries. […] This is evidenced by the fact that all clones chosen from the libraries to proceed with have in vitro a substantial increase in signal window, compared to the original template protein (constructs #10 or #14). These increases are also roughly similar fold-wise between the numbers obtained in bacterial lysate screening and in the process of in vitro characterization.",
  "data": [
    {"substance": "Rex(A)-cpmEGFP(173/174)-Rex(B)-mKOk [Construct #12]", "values": [
      {"measurement": "Performance under dual-excitation FRET signal collection mode", "result": "poor performance"}
    ]}
  ]
}
